Source: patent US9611485B2, “Polynucleotide and polypeptide sequences associated with herbicide tolerance” (priority 2010, dated 2017)

Assays:
[1] = system: Soybean (cv. Jack) T0 plants; experiment: Saflufenacil foliar spray of transgenic T0 soybean plants, visual injury; type: in vivo, Glycine max; conditions: 3 g/ha foliar spray, 7 days after treatment, 0=no effect, 100=dead plant
Description: Soybean was transformed essentially as described in Li et al. (2007) Plant Mol Biol 65:329-341. Soybean (cv. Jack) embryogenic cultures were transformed by particle bombardment with plant expression vectors using a strong constitutive promoter to control the GM ABCT1 SUS (susceptible allele, SEQ ID NO:125) or GM ABCT1 TOL (resistant allele, SEQ ID NO: 124) genes. Stable transgenic events were tested for presence of the transgene by PCR, but no confirmation of expression was performed. Three clonal plants were produced from each transgenic event.
These T0 plants were grown to the V2 to V8 growth stage and then sprayed with saflufenacil at a rate of 3 g/ha. All treatments were applied in a spray volume of 280 L/ha. The spray mixture contained acetone, water, glycerin and surfactant. Treated plants were compared to untreated plants of similar genetic background and evaluated for herbicide injury at seven days after treatment. Visual injury was on a scale of 0 to 100% injury (0=no effect to 100=dead plant). Plants are also visually evaluated for agronomic effects such as interveinal and veinal chlorosis, reddening, leaf malformation, necrosis, apical withering/death/regrowth, and whole plant height.

[2] = system: tobacco T1 seeds and wild type seeds; experiment: Germination of tobacco T1 seeds on Gelrite plates containing saflufenacil; type: in vivo
Description: Unsprayed clones of the transgenic tobacco plants described above were grown in a greenhouse until flowering and were allowed to self pollinate. Seeds were harvested and used for further experiments. Transgene insertion copy number was not determined for these plants, but for single copy plants the seeds would be expected to segregate 1homozygous:2hemizygous:1null for the transgene.
T1 seeds from multiple transgenic events carrying the resistant and susceptible alleles, and wild type seeds, were germinated on 1.5% Gelrite (no nutrients or minerals) plates and kept in a growth chamber at 26° C. under a 16 hr light regime. Plate media contained saflufenacil at concentrations down to 0.45 parts per billion (ppb). […] All seed germinated and grew normally on Gelrite plates lacking saflufenacil.

[3] = system: Tobacco (cv. Petite Havana) T0 plants; experiment: Saflufenacil foliar spray of transgenic T0 tobacco plants, visual injury; type: in vivo; conditions: 12.5 g/ha spray; for mean visual injury score: tobacco T0 plants carrying the susceptible allele
Description: Tobacco (cv. Petite Havana) was transformed by particle bombardment with plant expression vectors using a strong constitutive promoter to control the GM ABCT1 SUS (susceptible allele, SEQ ID NO: 125) or GM ABCT1 RES (resistant allele, SEQ ID NO: 124) genes using the following protocol: • 1) Weigh 1 mg 0.6 micron gold powder (for 8 shots). Add 1 ml 100% ethanol Sonicate 2 min. Centrifuge at 13,000 rpm×5 sec. Remove Supernatant. Repeat 3 times. • 2) Add 1 ml sterile double-deionized water. Sonicate 2 min. Centrifuge at 13,000 rpm×5 sec. Remove Supernatant. Repeat 2 times. • 3) Add 321 μl sterile water. Vortex and sonicate 2 min. • 4) Add 4 μl of DNA (1 μg/μl concentration) and vortex briefly. • 5) Add 100 μl of 5M CaCl2 and 80 μl of 0.1M Spermidine (14 μl of Spermidine+985.6 μl water prepared freshly). Mix with finger and vortex 2 sec. • 6) Incubate on ice for 1 min. Spin down at 13,000 rpm for 2 sec and remove supernatant. • 7) Add 500 μl of 100% ethanol. Pipette up and down a few times to wash. (It is important to break all big aggregates at this stage). Vortex 2 sec. Spin down at 13,000 rpm for 2 sec and remove supernatant. • 8) Re-suspend in 85 μl of 100% ethanol. Keep on ice. Vortex solution before spreading 10 μl of DNA prep on flying disk. (Sterilize in 100% ethanol for 5-10 min and air dry, also sterilize and air dry 1100 psi rupture disk). • 9) Place tobacco leaf (cv. Petit Havana) abaxial side up in the center of a petri plate containing MS01 medium (MS+B5 vitamins (Phytotechnology M519), Sucrose 30 g/l, agar 8 g/l, BA 2 mg/L, NAA 0.05 mg/L). • 10) Bombard with 28 mm Hg vacuum, position plate at 9 cm (2nd position from bottom), 1100 psi rupture disk. After bombardment, invert leaves so bombarded side and petioles are in contact with medium. • 11) Maintain leaves under 16 hrs/day dim light (<5 μEinstein) for 2-3 days. • 12) Cut leaves into small pieces (0.5 cm×0.5 cm) in MSB-Co (MS+Vit, Glucose 10 g/L, BA 50 mg/L, pH5.2), then blot dry on sterile filter paper and place with bombarded side in contact with the MS01 medium containing hygromycin 25 mg/L under 16 hrs/day light (80-120 μEinstein). When shoots appear, cut and place directly in selection media. • 13) Until shoots appear, change selection medium every 2 weeks. • 14) When entire plantlets are formed (1-2 cm high), leaves are cut into approx. 1-2 mm segments and re-cultured on MS01 medium containing hygromycin 25 mg/L and 8 g/L agar. Subculture to fresh medium every 3 weeks. When new shoots appear, isolate single shoots and transfer onto ½ MS media (M519 2.22 g/L, sucrose 15 g/L, agar 6 g/L).
Stable transgenic events were tested for presence of the transgene by PCR, and transcription of the genes was confirmed by qRT-PCR. Three clonal plants were produced from each transgenic event; two plants from each event were used for the spray experiment.
Plants were grown until 3 to 5 expanded true leaves were present and then sprayed with saflufenacil at a rate of 12.5 g/ha. All treatments were applied in a spray volume of 140 L/ha. Ammonium sulfate was included at 1% w/v. Treated plants were compared to untreated plants of similar genetic background and evaluated for herbicide injury at seven and seventeen days after treatment. Visual injury was on a scale of 0 to 100% injury (0=no effect to 100=dead plant).

[4] = system: tobacco T1 seedlings and wild type; experiment: Saflufenacil soil drench of tobacco T1 seedlings in pots; type: in vivo; conditions: three days after treatment
Source text: T1 seeds were sown in four inch pots containing soil and allowed to germinate for five days. At this point, with cotyledons visible above the soil, pots were drenched with 100 mls saflufenacil in water at 0.45 ppb. The solution was applied to soil, avoiding direct contact with plant cotyledons.

In the case of `CC(C)N(C)S(=O)(=O)NC(=O)c1cc(-n2c(=O)cc(C(F)(F)F)n(C)c2=O)c(F)cc1Cl` [saflufenacil], the mean visual injury ([1]; soybean cv. Jack T0 plants carrying the resistant allele (GM ABCT1 TOL)) is reported as 72%, the “mean visual injury score” value ([1]; soybean cv. Jack T0 plants carrying the susceptible allele (GM ABCT1 SUS)) is reported as 59% and the mean visual injury ([1]; wild type soy plants) is reported as 84%. The “difference between transgenic seed with either GM ABCT1 allele and wild type seed” value ([2]; Gelrite plates containing saflufenacil down to 0.45 ppb) was “No visible difference”, the “seed germination and growth” value ([2]; plate media at 0.91 ppb and 0.45 ppb, transgenic T1 and wild type tobacco seed) was “seeds germinated but were bleached and failed to grow” and the seed germination ([2]; plate media at concentrations above 0.91 ppb, transgenic T1 and wild type tobacco seed) was “no germination was observed”. For the same molecule, the mean visual injury ([3]; tobacco T0 plants carrying the resistant allele, seven days after treatment) was 63%, the mean visual injury ([3]; tobacco T0 plants carrying the resistant allele, seventeen days after treatment) was 46% and the “mean visual injury score” value ([3]; seven days after treatment) was 77%. For the same molecule, the “mean visual injury score” value ([3]; seventeen days after treatment) was 61%, the mean visual injury ([3]; transgenic control tobacco plants carrying an unrelated transgene, seven days after treatment) was 63% and the mean visual injury ([3]; transgenic control tobacco plants carrying an unrelated transgene, seventeen days after treatment) was 53%. For the same molecule, the seedling condition ([4]; 100 mls at 0.45 ppb drenched to soil five days after sowing) was “all seedlings were severely bleached and appeared dead” and the “differences between transgenic lines and wild type” value ([4]; 100 mls at 0.45 ppb soil drench) was “No visible differences”.
